{
  "source": "patent US8450281B2",
  "about": "“Non-immunosuppressive cyclosporin for treatment of Ullrich congenital muscular dystrophy” (Debiopharm S.A., priority 2007, dated 2013)",
  "key": {"[1]": {"tested_on": "myoblast cultures from UCMD patients", "assay": "Mitochondrial TMRM fluorescence (membrane potential) after oligomycin in myoblast cultures from UCMD patients", "assay_type": "cell-based, human", "conditions": "muscle cell cultures from UCMD patients", "experimental": "To assess whether the anti-apoptotic effects of collagen VI and CsA could be traced to mitochondria, mitochondrial function was studied in living muscle cell cultures. […] Addition of oligomycin was instead followed by mitochondrial depolarization in the cells from all UCMD patients. […] Mitochondrial membrane potential was assessed based on accumulation of tetramethylrhodamine methyl ester (TMRM). It is noted that oligomycin was expected to cause hyperpolarization in healthy, respiring cells in which the mitochondrial membrane potential is maintained by proton pumping by the respiratory chain and the proton electrochemical gradient is used to drive ATP synthesis.\nPanels A and B of FIG. 1 show mitochondrial membrane potentials in myoblasts from UCMD patients 1 (A) and 4 (B) as a function of time. Mitochondrial membrane potential was measured based on accumulation of tetramethylrhodamine methyl ester (TMRM). […] The extent of cell and, consequently, mitochondrial loading with potentiometric probes is affected by the activity of the plasma membrane multidrug resistance pump which is inhibited by cyclosporin A. Treatment with cyclosporins may therefore cause an increased mitochondrial fluorescence that can be erroneously interpreted as an increase of mitochondrial membrane potential. […] Data were acquired and analyzed using Cell R software (Olympus). […] Apoptosis was assessed as described before."}, "[2]": {"assay": "Initial phase I clinical studies, safety of oral doses", "assay_type": "in vivo, human", "experimental": "Initial phase I clinical studies were carried out to assess the safety of oral doses of [D-MeAla]^3-[EtVal]^4-CsA, and to determine the pharmacokinetic profile and safety profile of the drug substance. […] These side effects were not dose-related."}, "[3]": {"tested_on": "muscle cell cultures from UCMD patients and healthy donors", "assay": "Electron microscopy of mitochondria in muscle cell cultures", "assay_type": "cell-based, human", "conditions": "for percentage of cells with swollen mitochondria: oligomycin treatment", "from_the_text": "The muscle cell cultures established from healthy donors and from patients 1, 2 and 3 were studied by electron microscopy."}, "[4]": {"tested_on": "UCMD and BM patients", "assay": "Preliminary clinical trial, TMRM assay on muscle biopsies of UCMD and BM patients", "assay_type": "in vivo, human", "conditions": "daily oral dose of 5 mg/kg for thirty days", "experimental": "Five patients were enroIled, of which four suffered from UCMD and one of BM. The patients had mutation in their COL6A1, COL6A2 or COL6A3 genes, respectively. The trial was designed to test whether treatment with CsA was effective in reducing mitochondrial dysfunction as assessed by the ability of oligomycin to cause mitochondrial depolarization in muscle fibers. Depolarization was detected as a change in TMRM fluorescence. Patients were treated with a daily oral dose of 5 mg/kg CsA for a period of thirty days. Muscle biopsies were taken immediately before and after the treatment period and were processed for TMRM assay."}, "[5]": {"tested_on": "myoblast cultures from UCMD patients", "assay": "TUNEL incidence of apoptosis in myoblast cultures from UCMD patients", "assay_type": "cell-based, human", "conditions": "myoblast cultures from UCMD patients 1-4", "experimental": "Experiments were carried out to experimentally test the existence of a causal link between lack of collagen VI and apoptosis. Myoblast cultures were prepared from muscle biopsies of two unaffected controls and from patients 1, 2, 3 and 4 by enzymatic and mechanical treatment and plating in Dulbecco's modified Eagle's medium (DMEM) supplemented with 20% fetal calf serum, penicillin, streptomycin and amphotericin B (Sigma). To test for apoptosis, cells were fixed in 50% acetone-50% methanol and processed for TUNEL analysis using the Dead End Fluorescence TUNEL System (Promega). Visualization of all nuclei was performed by staining with Hoechst 33258. […] Demir et al. 2002. Giusti et al. 2005.\nPanels A and B of FIG. 1 show mitochondrial membrane potentials in myoblasts from UCMD patients 1 (A) and 4 (B) as a function of time. Mitochondrial membrane potential was measured based on accumulation of tetramethylrhodamine methyl ester (TMRM). […] The extent of cell and, consequently, mitochondrial loading with potentiometric probes is affected by the activity of the plasma membrane multidrug resistance pump which is inhibited by cyclosporin A. Treatment with cyclosporins may therefore cause an increased mitochondrial fluorescence that can be erroneously interpreted as an increase of mitochondrial membrane potential. […] Data were acquired and analyzed using Cell R software (Olympus). […]"}},
  "data": [
    {"compound": "CC(=O)OCOC(=O)CN(CC(=O)OCOC(C)=O)c1ccccc1OCCOc1ccccc1N(CC(=O)OCOC(C)=O)CC(=O)OCOC(C)=O", "note": "[BAPTA-AM]", "values": [
      {"measurement": "response to oligomycin (mitochondrial depolarization, TMRM)", "setting": "[1]", "value": "fully normalized"}
    ]},
    {"compound": "C/C=C/C[C@@H](C)[C@@H](O)[C@H]1C(=O)N[C@@H](CC)C(=O)N(C)[C@H](C)C(=O)N(CC)[C@@H](C(C)C)C(=O)N[C@@H](C(C)C)C(=O)N(C)[C@@H](CC(C)C)C(=O)N[C@@H](C)C(=O)N[C@H](C)C(=O)N(C)[C@@H](CC(C)C)C(=O)N(C)[C@@H](CC(C)C)C(=O)N(C)[C@@H](C(C)C)C(=O)N1C", "note": "[[D-MeAla]^3-[EtVal]^4-CsA]", "values": [
      {"measurement": "tolerability", "setting": "[2]; oral doses of 50 to 1600 mg in a micro-emulsion in water", "value": "well tolerated"},
      {"measurement": "side effects", "setting": "[2]; oral doses of 50 to 1600 mg, not dose-related", "value": "Mild and short-lived side effects were observed including nausea, vomiting, abdominal pain, and mild headaches"}
    ]},
    {"compound": "CC[C@H]1/C=C/C=C/C[C@@H](C)[C@H](O)[C@@](C)(O)C(=O)[C@@H](C)[C@H](O)[C@@H](C)C(=O)[C@@H](C)[C@H](O)[C@@H](C)/C=C/C(=O)O[C@@H]2[C@H](C)[C@H](CC1)O[C@]1(CC[C@H](C)[C@H](C[C@@H](C)O)O1)[C@H]2C", "note": "[oligomycin]", "values": [
      {"measurement": "percentage of cells with swollen mitochondria", "setting": "[3]; control (healthy donor) cultures", "value": 4, "unit": "%"},
      {"measurement": "percentage of cells with swollen mitochondria", "setting": "[3]; cultures from UCMD patients", "value": "over 40%"}
    ]},
    {"compound": "cyclosporin A", "values": [
      {"measurement": "response to oligomycin (mitochondrial depolarization, TMRM)", "setting": "[1]", "value": "fully normalized"},
      {"measurement": "mitochondrial dysfunction as assayed by oligomycin-induced depolarization", "setting": "[4]", "value": "capable of substantially reducing mitochondrial dysfunction"},
      {"measurement": "muscle cells depolarizing on oligomycin, subsequent to treatment", "setting": "[4]; average of five patients, 90% prior to treatment", "value": 37, "unit": "%"},
      {"measurement": "occurrence of apoptosis (TUNEL) in the patient samples", "setting": "[5]", "value": "fully normalized the occurrence of apoptosis"},
      {"measurement": "number of cells with swollen mitochondria", "setting": "[3]; UCMD cells, no oligomycin", "value": "decreased the number of cells with swoIlen mitochondria to the values observed in cultures from healthy donors"},
      {"measurement": "percentage of cells bearing swollen mitochondria after oligomycin", "setting": "[3]; oligomycin-treated cultures plus cyclosporin A", "value": "restored to values similar to basal"}
    ]}
  ]
}
